According to the supplement of paper PMC10307832:

How the values were obtained:
Assay in all cases: relative viability (nuclei count vs DMSO), 5 days (fraction); higher = more cells survive
Wnt-C59 + Crizotinib = compound: CC1=NC=CC(=C1)C2=CC=C(C=C2)CC(=O)NC3=CC=C(C=C3)C4=CN=CC=C4 [Wnt-C59] + C[C@@H](Oc1cc(-c2cnn(C3CCNCC3)c2)cnc1N)c1c(Cl)ccc(F)c1Cl [Crizotinib] (partner 1 µM)
Summary of the method: (§1)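 Lung cancer cell lines were seeded in 1536-well plates and dosed by pin tool the next day, with either a single drug or a fixed anchor-drug dose combined with five library-drug doses (not always all listed) spaced in √10 steps. Five days later, one step fixed the cells and stained their nuclei (final 0.05% Triton X-100, 1% formaldehyde, 1 ug/ml Hoechst), and nuclei were counted on 4× images. Relative viability is the nuclei count in treated wells divided by the count in vehicle wells, and each value is the median of duplicate plates.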

Wnt-C59 + Phenformin = compound: CC1=NC=CC(=C1)C2=CC=C(C=C2)CC(=O)NC3=CC=C(C=C3)C4=CN=CC=C4 [Wnt-C59] + N=C(N)NC(=N)NCCc1ccccc1 [Phenformin] (partner 250 µM)
Summary of the method: as §1

Lapatinib + Navitoclax = compound: CS(=O)(=O)CCNCc1ccc(-c2ccc3ncnc(Nc4ccc(OCc5cccc(F)c5)c(Cl)c4)c3c2)o1 [Lapatinib] + CC1(C)CCC(c2ccc(Cl)cc2)=C(CN2CCN(c3ccc(C(=O)NS(=O)(=O)c4ccc(N[C@H](CCN5CCOCC5)CSc5ccccc5)c(S(=O)(=O)C(F)(F)F)c4)cc3)CC2)C1 [Navitoclax] (partner 0.5 µM)
Summary of the method: as §1

Lapatinib + Dasatinib = compound: CS(=O)(=O)CCNCc1ccc(-c2ccc3ncnc(Nc4ccc(OCc5cccc(F)c5)c(Cl)c4)c3c2)o1 [Lapatinib] + Cc1nc(Nc2ncc(C(=O)Nc3c(C)cccc3Cl)s2)cc(N2CCN(CCO)CC2)n1 [Dasatinib] (partner 0.075 µM)
Summary of the method: as §1

Cell Line: UMC-11
- relative viability (Wnt-C59 + Crizotinib; first compound 0.001 µM): 0.659
- relative viability (Wnt-C59 + Crizotinib; first compound 0.01 µM): 0.567
- relative viability (Wnt-C59 + Crizotinib; first compound 0.03162 µM): 0.588
- relative viability (Wnt-C59 + Crizotinib; first compound 0.1 µM): 0.518
- relative viability (Wnt-C59 + Phenformin; first compound 0.001 µM): 0.305
- relative viability (Wnt-C59 + Phenformin; first compound 0.01 µM): 0.282
- relative viability (Wnt-C59 + Phenformin; first compound 0.03162 µM): 0.328
- relative viability (Wnt-C59 + Phenformin; first compound 0.1 µM): 0.32
- relative viability (Lapatinib + Navitoclax; first compound 0.02 µM): 0.352
- relative viability (Lapatinib + Navitoclax; first compound 0.06325 µM): 0.278
- relative viability (Lapatinib + Navitoclax; first compound 0.2 µM): 0.311
- relative viability (Lapatinib + Navitoclax; first compound 0.6325 µM): 0.318
- relative viability (Lapatinib + Navitoclax; first compound 2 µM): 0.314
- relative viability (Lapatinib + Dasatinib; first compound 0.02 µM): 0.45
- relative viability (Lapatinib + Dasatinib; first compound 0.06325 µM): 0.404
- relative viability (Lapatinib + Dasatinib; first compound 0.2 µM): 0.52
- relative viability (Lapatinib + Dasatinib; first compound 0.6325 µM): 0.453
- relative viability (Lapatinib + Dasatinib; first compound 2 µM): 0.421
